The values below come from US11517729B2, “Integrated fiber microneedle device for drug and vaccine delivery” (University of Washington, priority 2018, dated 2022).

The data set in a line: Release studies of integrated fiber microneedles in PBS. Type of data set: physicochemical. Here is the method: A small molecule drug, a model protein, and plasmid DNA were loaded into individual devices and the release kinetics of each were measured. These agents were loaded into an array of 420 needles, with a total device size of 4.2 cm^2. In this experiment, the needles were 350 μm in diameter and 800 μm tall. […] Each agent was successfully loaded into the fiber-microneedle system using a loading of 100 μg for the small molecule, […] for the protein, and 1.1 μg for the DNA. […] This plateau occurred at different percent release for the different agents. The small molecule plateaued at 70% release, the protein plateaued at 35% release, and the plasmid DNA plateaued around 80% release. […]
Data represent release from a single array of integrated fiber microneedles. Complete (100%) release was determined by TFV detected in release media after 84 days. […] 100% release was determined by DNA detected in release media after 25 days.
Microneedle characterization: SEM imaging of electrospun fibers on the two-layer composite microneedle molds and completed microneedles was performed on a JEOL JSM7400F cold field emission scanning electron microscope. […] TFV content was determined by HPLC (Shimadzu Prominence LC20AD UV-HPLC) with a Phenomenex Luna 153 C18 column and LCSolutions software. […] The column was heated to 30° C., and TFV was detected at 259 nm. BSA content was analyzed by the Pierce MicroBCA Assay. […]

Regarding `C[C@H](Cn1cnc2c(N)ncnc21)OCP(=O)(O)O` [TFV, tenofovir], the “plateau of percent release” value (TFV from integrated fiber microneedles into PBS, HPLC, 100% = TFV detected in release media after 84 days, single array) is recorded as 70%. In addition, the release profile entry (from integrated fiber microneedles (array of 420 needles) into PBS) was “sharp initial burst release followed by a plateau”.
